Measurements published in patent US6864256B2, “Methods for the control of insect pests” (Tria Specialty Products, LLC, priority 2002, dated 2005).
Where “and” joins values, the source holds several entries; their conditions need not be identical. Equal values may be shown once. Read-outs that look alike come from different tables or passages of the source. Marks after values point to notes of the source that are not given here.

Key:
[1] = Tolerability of daily oral cyromazine in horses; type: in vivo, horse; conditions: 600 mg daily oral by top-dressing feed
Procedure: (§1) Cyromazine (2-cycloproplyamino-4,6-diamino-s-triazine) was obtained as a purified chemical composition at greater than 98% cyromazine (technical cyromazine). 600 mg of cyromazine was orally administered to each horse daily by top-dressing horse feed, for a continuous daily administration during fly season. In this example, horses residing in North Carolina, U.S. were treated during the local fly season, lasting approximately March through October of the calendar year.
(§2) In one study, cyromazine administration was stopped, and 5 manure samples were obtained from the same horse at 24, 48, 72, 96 and 120 hours post-dosing to monitor the duration of cyromazine at an insecticidal amount in the feces. In another study, single manure samples were collected from each individual horse (n=4) <24 hours after dosing with cyromazine, i.e., before another daily dose was given. Untreated control horse manure was collected from a nearby horse ranch. Samples were shipped and kept in the refrigerator until the house fly bioassay was set-up.

house flies = conditions: added to the feed of mink; cited from earlier work
[2] = test system: Musca domestica (Hilmer Strain) eggs; assay: House fly bioassay: larval hatch from 50 eggs; type: in vivo; conditions: for Larval Hatch/50 Eggs, Rep 1-4: scored after 2 days
Procedure: as §1, §2
Approximately fifty (50) Musca domestica (Hilmer Strain) eggs <24 hours old were counted and placed on filter paper discs in each of four replicates (rep) per cyromazine treatment group or control. Each replicate was covered with a paper towel and placed in the environmental chamber at 80° F. (27° C.), 80% relative humidity and a 14:10 (light:dark) photoperiod. The eggs were scored for larval hatch after two days and a layer of wood shavings added as a moisture barrier and a dry substrate for pupation.
(§3) The percent larval hatch, adult fly emergence and corrected percent effect were calculated and recorded. The percentage of eggs hatching is calculated as the mean number of eggs hatched after 2 days per test divided by 50 (the total eggs input), and multiplied by 100. The percentage of adult fly emergence from larvae hatched (% larvae emerging as flies) is calculated as the mean number of adult flies emerging after 3 weeks per test divided by the mean number of larvae hatching on test day 2, and multiplied by 100. The percentage of larvae not developing is calculated as the mean number of larvae not developing per test divided by the mean number of larvae hatching on test day 2, and multiplied by 100. Thus, the data in Table 2 refers back to the data in Table 1, and the data in Table 4 refers back to the data in Table 3.

[3] = in vivo; cited from earlier work
house fly = conditions: feed-through to fattening porkers, traditional pens with straw bedding; cited from earlier work
[4] = test system: Musca domestica (Hilmer Strain) larvae; assay: House fly bioassay: adult fly emergence from larvae exposed to feces of cyromazine-treated horses; type: in vivo; conditions: for Adult Fly Emergence from Larvae Hatched, Rep 1-4: 600 mg/day oral, after 3 weeks
Procedure: as §1, §2
The replicates containing hatched larvae were then returned to the environmental chamber in the presence of the test feces samples to determine the insecticidal effect of the cyromazine in the feces. Adult house fly emergence from larvae was determined after 3 weeks.
as §3

immature stages of flies = conditions: dairy calves, outdoor hutches, dose per body weight; cited from earlier work
dung-breeding flies = conditions: cattle, cited from earlier work
[5] = horse Barney, <24 hours post-dosing group
[6] = horse Fancy, <24 hours post-dosing group
[7] = horse Phalete, <24 hours post-dosing group
[8] = horse Precious, <24 hours post-dosing group
[9] = same horse, 600 mg/day oral, 24 hours post-dosing group
[10] = same horse, 600 mg/day oral, 48 hours post-dosing group
[11] = same horse, 600 mg/day oral, 72 hours post-dosing group
[12] = same horse, 600 mg/day oral, 96 hours post-dosing group
[13] = same horse, 600 mg/day oral, 120 hours post-dosing group
[14] = 120 hour sample (4 reps), first study
[15] = feces of horse Barney, <24 hours post-dosing
[16] = feces of horse Fancy, <24 hours post-dosing
[17] = feces of horse Phalete, <24 hours post-dosing
[18] = feces of horse Precious, <24 hours post-dosing
[19] = horse feces 24 hours post-dosing
[20] = horse feces 48 hours post-dosing
[21] = horse feces 72 hours post-dosing
[22] = horse feces 96 hours post-dosing
[23] = horse feces 120 hours post-dosing

In the case of `Nc1nc(N)nc(NC2CC2)n1` [cyromazine, 2-cyclopropylamino-4,6-diamino-s-triazine], the “tolerability, side effects” value [1] is listed as “well tolerated at this dosage, and no side effects were seen”, the “prevention of breeding of house flies” value (house flies) is listed as “ineffective” and the “Larval Hatch/50 Eggs, Rep 1-4” value ([2]; horse Barney, 600 mg/day oral, <24 hours post-dosing group) is listed as 25 and 33 and 43 and 32. For the same compound, the “% Eggs Hatching” value [2, 5] was 66.5%, the “Larval Hatch/50 Eggs, Mean” value [2, 5] was 33.25 and the “Larval Hatch/50 Eggs, Σ” value [2, 5] was 133. The “Larval Hatch/50 Eggs, Rep 1-4” value ([2]; horse Fancy, 600 mg/day oral, <24 hours post-dosing group) was 47 and 33 and 32 and 35, the “% Eggs Hatching” value [2, 6] was 73.5% and the “Larval Hatch/50 Eggs, Mean” value [2, 6] was 36.75. For the same compound, the “Larval Hatch/50 Eggs, Σ” value [2, 6] was 147, the “% Eggs Hatching” value [2, 7] was 83.5% and the “Larval Hatch/50 Eggs, Mean” value [2, 7] was 41.75. The “Larval Hatch/50 Eggs, Σ” value ([2]; horse Phalete, <24 hours post-dosing group, sum decreased by 7 (footnote)) was 167*, the “Larval Hatch/50 Eggs, Rep 1-4” value ([2]; horse Precious, 600 mg/day oral, <24 hours post-dosing group) was 49 and 37 and 44 and the “% Eggs Hatching” value [2, 8] was 89.5%. For the same compound, the “Larval Hatch/50 Eggs, Mean” value [2, 8] was 44.75, the “Larval Hatch/50 Eggs, Σ” value [2, 8] was 179 and the “% Eggs Hatching” value [2, 9] was 82.5%. The “Larval Hatch/50 Eggs, Mean” value [2, 9] was 41.25, the “Larval Hatch/50 Eggs, Σ” value [2, 9] was 165 and the “Larval Hatch/50 Eggs, Rep 1-4” value [2, 9] was 40 and 35 and 42 and 48. For the same compound, the “% Eggs Hatching” value [2, 10] was 57.5%, the “Larval Hatch/50 Eggs, Mean” value [2, 10] was 28.75 and the “Larval Hatch/50 Eggs, Σ” value [2, 10] was 115. For the same compound, the “Larval Hatch/50 Eggs, Rep 1-4” value [2, 10] was 31 and 21 and 30 and 33, the “% Eggs Hatching” value [2, 11] was 50.5% and the “Larval Hatch/50 Eggs, Mean” value [2, 11] was 25.25. For the same compound, the “Larval Hatch/50 Eggs, Σ” value [2, 11] was 101, the “Larval Hatch/50 Eggs, Rep 1-4” value [2, 11] was 27 and 35 and 18 and 21 and the “% Eggs Hatching” value [2, 12] was 75.0%. For the same compound, the “Larval Hatch/50 Eggs, Mean” value [2, 12] was 37.50, the “Larval Hatch/50 Eggs, Σ” value [2, 12] was 150 and the “Larval Hatch/50 Eggs, Rep 1-4” value [2, 12] was 40 and 38 and 34. For the same compound, the “% Eggs Hatching” value [2, 13] was 61.0%, the “Larval Hatch/50 Eggs, Mean” value [2, 13] was 30.50 and the “Larval Hatch/50 Eggs, Σ” value [2, 13] was 122. For the same compound, the “Larval Hatch/50 Eggs, Rep 1-4” value [2, 13] was 38 and 25 and 31 and 28, the “share of all cyromazine excreted found in urine” value [3] was 95% and the adult fly development (house fly) was “some adult flies did develop”. The flies emerged [4, 14] was 1, the “flies emerged, percent” value [4, 14] was 0.2% and the “insecticidal amount in the feces” value ([4]; feces obtained at 24, 48, 72, 96 and 120 hours post-dosing) was “An insecticidal amount of cyromazine was present in the feces”. For the same compound, the “Adult Fly Emergence from Larvae Hatched, Rep 1-4” value (from here on “Adult Fly Emergence … Rep 1-4”) [4, 15] was 0, the “# Larvae not Developing” value [4, 15] was 133 and the “% Larvae Emerging as Flies” value [4, 15] was 0%. The “% Larvae not Developing” value [4, 15] was 100.0%, the “Adult Fly Emergence from Larvae Hatched, Σ” value (“Adult Fly Emergence … Σ” below) [4, 15] was 0 and the “Adult Fly Emergence … Rep 1-4” value [4, 16] was 0. The “# Larvae not Developing” value [4, 16] was 147, the “% Larvae Emerging as Flies” value [4, 16] was 0% and the “% Larvae not Developing” value [4, 16] was 100.0%. For the same compound, the “Adult Fly Emergence … Σ” value [4, 16] was 0, the “Adult Fly Emergence … Rep 1-4” value [4, 17] was 0 and the “# Larvae not Developing” value [4, 17] was 167. The “% Larvae Emerging as Flies” value [4, 17] was 0%, the “% Larvae not Developing” value [4, 17] was 100.0% and the “Adult Fly Emergence … Σ” value [4, 17] was 0. The “Adult Fly Emergence … Rep 1-4” value [4, 18] was 0, the “# Larvae not Developing” value [4, 18] was 179 and the “% Larvae Emerging as Flies” value [4, 18] was 0%. The “% Larvae not Developing” value [4, 18] was 100.0%, the “Adult Fly Emergence … Σ” value [4, 18] was 0 and the “adult fly emergence from hatched larvae” value ([4]; first study, same horse sampled at 5 time points) was “completely inhibited adult fly emergence”. The “# Larvae not Developing” value [4, 19] was 165, the “% Larvae Emerging as Flies” value [4, 19] was 0% and the “% Larvae not Developing” value [4, 19] was 100.0%. For the same compound, the “Adult Fly Emergence … Σ” value [4, 19] was 0, the “Adult Fly Emergence … Rep 1-4” value [4, 19] was 0 and the “# Larvae not Developing” value [4, 20] was 115. The “% Larvae Emerging as Flies” value [4, 20] was 0%, the “% Larvae not Developing” value [4, 20] was 100.0% and the “Adult Fly Emergence … Σ” value [4, 20] was 0. For the same compound, the “Adult Fly Emergence … Rep 1-4” value [4, 20] was 0, the “# Larvae not Developing” value [4, 21] was 101 and the “% Larvae Emerging as Flies” value [4, 21] was 0%. The “% Larvae not Developing” value [4, 21] was 100.0%, the “Adult Fly Emergence … Σ” value [4, 21] was 0 and the “Adult Fly Emergence … Rep 1-4” value [4, 21] was 0. The “# Larvae not Developing” value [4, 22] was 150, the “% Larvae Emerging as Flies” value [4, 22] was 0% and the “% Larvae not Developing” value [4, 22] was 100.0%. For the same compound, the “Adult Fly Emergence … Σ” value [4, 22] was 0, the “Adult Fly Emergence … Rep 1-4” value [4, 22] was 0 and the “# Larvae not Developing” value [4, 23] was 121. The “% Larvae Emerging as Flies” value [4, 23] was 0.8%, the “% Larvae not Developing” value [4, 23] was 99.8% and the “Adult Fly Emergence … Σ” value [4, 23] was 1. For the same compound, the “insecticidal activity of manure samples” value ([4]; horses orally administered cyromazine, feces without urine) was “high degree of insecticidal activity”, the “inhibition of house fly development” value ([4]; second study, all 4 horses, <24 hours post-dosing) was 100% and the “doses preventing development of immature stages of flies in straw bedding” value (immature stages of flies) was 0.5 to 1.0 mg/kg.
For `COC(C)(C)CCC[C@H](C)C/C=C/C(C)=C/C(=O)OC(C)C` (racemic) [methoprene], the “inhibition of development in manure” value (dung-breeding flies; drinking water) is listed as “Complete inhibition of development in manure” and the “inhibition of development in manure” value (dung-breeding flies; mineral blocks) is listed as “Complete inhibition of development in manure”.
